Assay results: patent US20090011442A1, “TB diagnostics based on mycobacterium tuberculosis excretory secretory antigens and their specific immunoglobulins” (priority 2007, published 2009)

Test system: M. tb H37Ra bacilli
Assay type: cell-based, Mycobacterium tuberculosis H37Ra

Compound	MIC (mg/l)/Resistance Ratio	Resistance ratio
CC[C@@H](CO)NCCN[C@@H](CC)CO [EMB, ethambutol]	>8 mg/L	–
NNC(=O)c1ccncc1 [INH, isoniazid]	>1 mg/L	–
NC(=O)c1cnccn1 [PZA]	>100 mg/L	–
CO[C@H]1/C=C/O[C@@]2(C)Oc3c(C)c(O)c4c(O)c(c(/C=N/N5CCN(C)CC5)c(O)c4c3C2=O)NC(=O)/C(C)=C\C=C\[C@H](C)[C@H](O)[C@@H](C)[C@@H](O)[C@@H](C)[C@H](OC(C)=O)[C@@H]1C [RMP, rifampicin]	>64 mg/L	–
[H]/N=C(/N)N[C@H]1[C@H](O)[C@@H](O)[C@H](O[C@@H]2O[C@@H](C)[C@](O)(C=O)[C@H]2O[C@@H]2O[C@@H](CO)[C@H](O)[C@@H](O)[C@@H]2NC)[C@@H](N/C(N)=N\[H])[C@@H]1O [SM, streptomycin]	–	ratio > 8
